Assay [1] addresses T1, human capsaicin receptor (Homo sapiens, UniProt Q8NER1).
T1 construct: expressed in transfected cells
In words: Calcium mobilization assay, determination of agonist activity. It is filed as cell-based. The note with it: cells expressing human capsaicin receptor, no capsaicin added, FLUO-3 fluorescence. As for the experimental part:
(§1) A cDNA encoding full length human capsaicin receptor (SEQ ID NO: 1, 2 or 3 of U.S. Pat. No. 6,482,611) was subcloned in the plasmid pBK-CMV (Stratagene, La Jolla, Calif.) for recombinant expression in mammalian cells.
(§2) Human embryonic kidney (HEK293) cells were transfected with the pBK-CMV expression construct encoding the full length human capsaicin receptor using standard methods. The transfected cells were selected for two weeks in media containing G418 (400 μg/ml) to obtain a pool of stably transfected cells. Independent clones were isolated from this pool by limiting dilution to obtain clonal stable cell lines for use in subsequent experiments.
Cells transfected with expression plasmids (as described in Example 4) and thereby expressing human capsaicin receptor are seeded and grown to 70-90% confluency in FALCON black-walled, clear-bottomed 96-well plates (#3904, BECTON-DICKINSON, Franklin Lakes, N.J.). The culture medium is emptied from the 96 well plates and FLUO-3 AM calcium sensitive dye (Molecular Probes, Eugene, Oreg.) is added to each well (dye solution: 1 mg FLUO-3 AM, 440 μL DMSO and 440 μ20% pluronic acid in DMSO, diluted 1:250 in Krebs-Ringer HEPES (KRH) buffer (25 mM HEPES, 5 mM KCl, 0.96 mM NaH2PO4, 1 mM MgSO4, 2 mM CaCl2, 5 mM glucose, 1 mM probenecid, pH 7.4), 50 μl diluted solution per well). Plates are covered with aluminum foil and incubated at 37° C. for 1-2 hours in an environment containing 5% CO2. […]
The ability of a test compound to act as an agonist of the capsaicin receptor is determined by measuring the fluorescence response of cells expressing capsaicin receptors elicited by the compound as function of compound concentration. […] The extent of efficacy of each test compound is also determined by calculating the response elicited by a concentration of test compound (typically 1 μM) relative to the response elicited by 100 nM capsaicin. This value, called Percent of Signal (POS), is calculated by the following equation: […]
(In general: Calcium flux is commonly read through the fluorescence of an indicator in the cells.)

The target in assay [2] is T1, human capsaicin receptor. In words: Calcium mobilization assay, determination of antagonist activity. It is filed as cell-based. The note with it: cells expressing human capsaicin receptor, capsaicin at EC50, FLUO-3 fluorescence; read-out: IC50 (antag.). As for the experimental part: as §1, §2
Cells transfected with expression plasmids (as described in Example 4) and thereby expressing human capsaicin receptor are seeded and grown to 70-90% confluency in FALCON black-walled, clear-bottomed 96-well plates (#3904, BECTON-DICKINSON, Franklin Lakes, N.J.). The culture medium is emptied from the 96 well plates and FLUO-3 AM calcium sensitive dye (Molecular Probes, Eugene, Oreg.) is added to each well (dye solution: 1 mg FLUO-3 AM, 440 μL DMSO and 440 μ20% pluronic acid in DMSO, diluted 1:250 in Krebs-Ringer HEPES (KRH) buffer (25 mM HEPES, 5 mM KCl, 0.96 mM NaH2PO4, 1 mM MgSO4, 2 mM CaCl2, 5 mM glucose, 1 mM probenecid, pH 7.4), 50 μl diluted solution per well). Plates are covered with aluminum foil and incubated at 37° C. for 1-2 hours in an environment containing 5% CO2. After the incubation, the dye is emptied from the plates, and the cells are washed once with KRH buffer, and resuspended in KRH buffer.
To measure the ability of a test compound to agonize or antagonize a calcium mobilization response in cells expressing capsaicin receptors to capsaicin or other vanilloid agonist, the EC50 of the agonist capsaicin is first determined. An additional 20 μl of KRH buffer and 1 μl DMSO is added to each well of cells, prepared as described above. 100 μl capsaicin in KRH buffer is automatically transferred by the FLIPR instrument to each well. Capsaicin-induced calcium mobilization is monitored using either FLUOROSKAN ASCENT (Labsystems; Franklin, Mass.) or FLIPR (fluorometric imaging plate reader system; Molecular Devices, Sunnyvale, Calif.) instruments. Data obtained between 30 and 60 seconds after agonist application are used to generate an 8-point concentration response curve, with final capsaicin concentrations of 1 nM to 3 μM. KALEIDAGRAPH software (Synergy Software, Reading, Pa.) is used to fit the data to the equation: […]
to determine the 50% excitatory concentration (EC50) for the response. In this equation, y is the maximum fluorescence signal, x is the concentration of the agonist or antagonist (in this case, capsaicin), a is the Emax, b corresponds to the EC50 value and c is the Hill coefficient.
Test compounds are dissolved in DMSO, diluted in 20 μl KRH buffer so that the final concentration of test compounds in the assay well is between 1 μM and 5 μM, and added to cells prepared as described above. The 96 well plates containing prepared cells and test compounds are incubated in the dark, at room temperature for 0.5 to 6 hours. It is important that the incubation not continue beyond 6 hours. Just prior to determining the fluorescence response, 100 μl capsaicin in KRH buffer at twice the EC50 concentration determined as described above is automatically added by the FLIPR instrument to each well of the 96 well plate for a final sample volume of 200 μl and a final capsaicin concentration equal to the EC50. The final concentration of test compounds in the assay wells is between 1 μM and 5 μM. […] The concentration of antagonist required to provide a 50% decrease, relative to the response observed in the presence of capsaicin and without antagonist, is the IC50 for the antagonist, and is preferably below 1 micromolar, 100 nanomolar, 10 nanomolar or 1 nanomolar.

The target of another assay is VR (Homo sapiens, UniProt Q8NER1). The following applies: typically; no more than moderate affinity; cited from earlier work.
Sequence of VR (Q8NER1 whole entry): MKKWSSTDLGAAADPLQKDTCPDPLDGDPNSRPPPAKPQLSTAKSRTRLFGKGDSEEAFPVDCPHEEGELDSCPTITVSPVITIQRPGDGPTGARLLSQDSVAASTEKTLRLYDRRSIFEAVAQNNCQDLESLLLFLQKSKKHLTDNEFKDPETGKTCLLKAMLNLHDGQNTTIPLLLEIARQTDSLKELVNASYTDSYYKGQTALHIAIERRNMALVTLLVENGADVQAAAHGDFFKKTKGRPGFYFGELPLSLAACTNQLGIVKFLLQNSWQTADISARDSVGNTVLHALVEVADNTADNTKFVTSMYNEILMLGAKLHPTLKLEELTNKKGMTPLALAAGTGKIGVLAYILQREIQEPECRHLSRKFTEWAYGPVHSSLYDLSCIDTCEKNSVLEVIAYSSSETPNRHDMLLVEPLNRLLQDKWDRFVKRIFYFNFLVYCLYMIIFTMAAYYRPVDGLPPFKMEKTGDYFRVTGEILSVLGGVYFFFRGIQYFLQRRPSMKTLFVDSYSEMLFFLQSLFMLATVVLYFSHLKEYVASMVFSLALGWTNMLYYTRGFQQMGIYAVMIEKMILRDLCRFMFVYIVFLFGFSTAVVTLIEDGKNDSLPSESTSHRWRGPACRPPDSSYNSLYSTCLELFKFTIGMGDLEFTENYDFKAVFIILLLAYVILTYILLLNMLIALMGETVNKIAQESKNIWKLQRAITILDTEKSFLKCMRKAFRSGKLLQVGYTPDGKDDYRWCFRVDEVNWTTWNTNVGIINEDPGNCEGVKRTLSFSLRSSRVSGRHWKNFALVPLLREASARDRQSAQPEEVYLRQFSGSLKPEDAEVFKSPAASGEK

Molecules are shown by their SMILES.

T1 sequence (Q8NER1 whole entry): as above

Take `CC1CCCN1c1nc(-c2ccc(F)cc2)cc(-c2ccc(N3CCC(O)CC3)nc2)n1` (stereo not shown) [Compound 1, 1-{5-[6-(4-fluorophenyl)-2-(2-methylpyrrolidin-1-yl)pyrimidin-4-yl]pyridin-2-yl}piperidin-4-ol]: the EC50 on human capsaicin receptor [1] was below 1000 nM. Further, the IC50 on human capsaicin receptor [2] is below 1000 nM.
Consider `CC1CCCN1c1nc(-c2ccc(F)cc2)cc(-c2ccc(N3CCC(C(=O)O)CC3)nc2)n1` (stereo not shown) [Compound 3, 1-{5-[6-(4-fluorophenyl)-2-(2-methylpyrrolidin-1-yl)pyrimidin-4-yl]pyridin-2-yl}piperidine-4-carboxylicacid], for which, on human capsaicin receptor [2], the IC50 is below 1000 nM.
Take `CC1CCCN1c1nc(-c2ccc(F)cc2)cc(-c2ccc(N3CCC(C(N)=O)CC3)nc2)n1` (stereo not shown) [Compound 4, 1-{5-[6-(4-fluorophenyl)-2-(2-methylpyrrolidin-1-yl)pyrimidin-4-yl]pyridin-2-yl}piperidine-4-carboxamide]: the EC50 on human capsaicin receptor [1] is below 1000 nM.
As for `Fc1ccc(-c2cc(-c3ccc(-c4ncccc4C(F)(F)F)nc3)nc(N3CCOCC3)n2)cc1Cl` [Compound 5, 5′-[6-(3-chloro-4-fluorophenyl)-2-morpholin-4-ylpyrimidin-4-yl]-3-(trifluoromethyl)-2,2′-bipyridine], at human capsaicin receptor [2], the IC50 was below 1000 nM.
The same measure, in the same setting: the figure for `Cc1cccnc1-c1ccc(-c2cc(-c3ccc(F)c(Cl)c3)nc(N3CCOCC3)n2)cn1` [Compound 6, 5′-[6-(3-chloro-4-fluorophenyl)-2-morpholin-4-ylpyrimidin-4-yl]-3-methyl-2,2′-bipyridine] is below 1000 nM.
Take `CC1CCCN1c1nc(-c2ccc(F)cc2)cc(-c2ccc(N3CCC(CO)CC3)nc2)n1` (stereo not shown) [Compound 7, (1-{5-[6-(4-fluorophenyl)-2-(2-methylpyrrolidin-1-yl)pyrimidin-4-yl]pyridin-2-yl}piperidin-4-yl)methanol]: on human capsaicin receptor [1], the 50% effective concentration (EC50) was below 1000 nM.
In the case of `Nc1nc(-c2ccc(-c3ncccc3C(F)(F)F)cc2)cc(-c2ccc(F)c(Cl)c2)n1` [Compound 8, 4-(3-chloro-4-fluorophenyl)-6-{4-[3(trifluoromethyl)pyridin-2-yl]phenyl}pyrimidin-2-amine], at human capsaicin receptor [2], the IC50 was below 1000 nM.
As to `Fc1ccc(-c2cc(-c3ccc(-c4ncccc4C(F)(F)F)cc3)nc(N3CCOCC3)n2)cc1Cl` [Compound 9, 4-(4-(3-chloro-4-fluorophenyl)-6-{4-[3-(trifluoromethyl)pyridin-2-yl]phenyl}pyrimidin-2-yl)morpholine], on human capsaicin receptor [2], the IC50 was below 1000 nM.
Take `Cl.Cl.Cl.Cl.Cl.Cl.N.N.N.N.N.N.N.N.N.N.N.N.N.N.[O-2].[O-2].[Ru+3].[Ru+3].[Ru+4]` [ruthenium red]: the Ki on VR was at least 140000 nM.

The term EC50 denotes the concentration that produces a half-maximal response. One may read the IC50 as the concentration that inhibits the measured activity by half. In general, Ki refers to the dissociation constant of the complex between target and ligand, obtained from inhibition or displacement.

These data come from patent US20080132509A1, “Substituted Biaryl Analogues” (Neurogen Corporation, priority 2004, published 2008).
